Reference: publication PMC6925736, “Development of a HPLC-MS/MS Method to Determine the 13 Elements of Semen Cuscutae and Application to a Pharmacokinetic Study in Rats” (Evidence-based Complementary and Alternative Medicine : eCAM, 2019)

Tests used:
[1] = Pharmacokinetic study in rats after oral administration of Semen Cuscutae extract (HPLC-MS/MS of plasma); type: in vivo, Sprague–Dawley rats; conditions: oral Semen Cuscutae extract 13 g/kg; for AUC: read-out: AUC(0-tn); for plasma concentration after 15 minutes of intragastric administration: LLOQ 1 ng/mL
Experimental: 20 μL of methanol, 20 μL of IS (liquiritin, 200 ng/mL) and 20 μL of formic acid were added to 100 μL of plasma sample and then vortex-mixed. The mixture was extracted with 800 μL of acetonitrile by vortexing for 3 min. After centrifugation at 14000 rpm for 10 min, the supernatant was transferred to a clean glass tube and dried with nitrogen. The residue was reconstituted in 100 μL of methanol and then centrifuged at 14000 rpm for 10 min. 5 μL of supernatant was injected into the LC–MS/MS system for analysis.
Six Sprague–Dawley rats (SPF, 200 ± 10 g, male) were purchased from HFK Laboratory Animal Technology Co., Ltd. The rats were housed in a standard laboratory condition (12 h dark-light cycle; temperature was 25°C ± 2°C and humidity was kept 50 ± 5%) and fed standard dry pellet diet and water for one week for acclimatization. Before the experiments, the rats were in fasting state for 12 h, with free access to water. The Semen Cuscutae extracts were dissolved in 0.5% carboxymethyl cellulose-sodium, prepared into suspension and gavage to the rats at a dose of 13 g/kg. Approximately 200 μL of rat blood samples was collected from the orbital venous plexus at 0, 0.03, 0.08, 0.17, 0.25, 0.5, 1, 2, 4, 6, 8, 10, 12, 24, 36, and 48 h after oral administration into 1.5 mL heparinized centrifuge tube. After centrifugation at 7000 rpm for 10 min immediately, the supernatant was collected into a new centrifuge tube and stored at −70°C until analysis.
Pharmacokinetic parameters (Cmax, t1/2, Tmax, AUC(0-tn), and AUC(0-∞)) were obtained using the software “Drug and Statistics 3.0” (DAS 3.0) (Medical College of Wannan, China).

[2] = Stability of analytes in rat plasma QC samples under processing and storage conditions; type: in vitro ADME; conditions: n = 6; for Measured concentration, room temperature for 4h / Measured concentration, three freeze-thaw / Measured concentration, −70°C for 21 days: rat plasma; for Measured concentration, autosampler for 12h: treated rat plasma sample
Experimental: The stability of the 13 analytes was evaluated by QC samples in different processing and storage conditions, including short-term stability (putting the analytes in ambient temperature for 4 h and storing analytes in autosampler for 12 h after treatment), long-term stability (storing the analytes at −70°C for 21 days) and subjecting analytes to three freeze-thaw cycles. All stability experiments were tested in six parallels with low, middle, and high concentrations.

[3] = male, Sprague-Dawley, rat plasma, n = 6
[4] = rat plasma, n = 6, listed as isoquercitrin
[5] = rat plasma, n = 6, listed as astragalin
[6] = rat plasma, n = 6, listed as hyperoside

AUC(0-inf) [1, 3] [ng·h/mL] | Cmax [1, 3] [ng/mL] | AUC [1, 3] [ng·h/mL] | Measured concentration, room temperature for 4h ([2]; spiked 2 ng/mL) [ng/mL] | Measured concentration, three freeze-thaw ([2]; spiked 2 ng/mL) [ng/mL] | Measured concentration, −70°C for 21 days ([2]; spiked 2 ng/mL) [ng/mL] | Measured concentration, room temperature for 4h ([2]; spiked 25 ng/mL) [ng/mL] | Measured concentration, three freeze-thaw ([2]; spiked 25 ng/mL) [ng/mL] | Measured concentration, −70°C for 21 days ([2]; spiked 25 ng/mL) [ng/mL] | Measured concentration, room temperature for 4h ([2]; spiked 250 ng/mL) [ng/mL] | Measured concentration, three freeze-thaw ([2]; spiked 250 ng/mL) [ng/mL] | Measured concentration, −70°C for 21 days ([2]; spiked 250 ng/mL) [ng/mL] | Measured concentration, autosampler for 12h ([2]; spiked 2 ng/mL) [ng/mL] | Measured concentration, autosampler for 12h ([2]; spiked 25 ng/mL) [ng/mL] | Measured concentration, autosampler for 12h ([2]; spiked 250 ng/mL) [ng/mL] | plasma concentration after 15 minutes of intragastric administration ([1]; rat plasma) | Molecule | T max ([1]; rat plasma, n = 6) [min] | t 1/2 ([1]; rat plasma, n = 6) [min] | further results
257 ± 74.4 | 19.5 ± 9.8 | 172 ± 49.2 | 2.0 ± 0.1 | 2.0 ± 0.1 | 2.1 ± 0.1 | 27.1 ± 1.3 | 27.1 ± 1.5 | 26.2 ± 0.6 | 259.9 ± 5.5 | 255.0 ± 5.7 | 249.5 ± 7.0 | 2.1 ± 0.1 | 26.9 ± 1.0 | 251.5 ± 5.4 |  | COc1cc(-c2oc3cc(O)cc(O)c3c(=O)c2O[C@@H]2O[C@H](CO)[C@@H](O)[C@H](O)[C@H]2O)ccc1O [Isorhamnetin-3-O-glucoside] | 18 ± 0.6 | 73.8 ± 15.6 | half-life ([1]; male, Sprague-Dawley, rat, plasma, po, 13 g/kg, n = 6): < 90 min; T max ([1]; rat plasma, n = 6, listed as isorhamnetin-3-O-glucoside): less than 1 h
 |  |  | 2.2 ± 0.1 | 2.0 ± 0.1 | 2.0 ± 0.1 | 26.5 ± 0.5 | 26.8 ± 1.6 | 27.4 ± 0.9 | 256.7 ± 11.5 | 261.1 ± 8.2 | 257.6 ± 5.1 | 2.1 ± 0.1 | 25.6 ± 1.0 | 244.9 ± 6.3 | lower than the LLOQ | O=c1cc(-c2ccc(O)c(O)c2)oc2cc(O)cc(O)c12 [Luteolin] |  |  | 
 |  |  | 2.2 ± 0.2 | 2.0 ± 0.2 | 2.0 ± 0.1 | 24.8 ± 0.3 | 26.2 ± 1.6 | 25.7 ± 0.8 | 247.5 ± 6.3 | 252.6 ± 7.5 | 257.2 ± 6.4 | 2.1 ± 0.2 | 25.4 ± 2.5 | 254.0 ± 4.9 | lower than the LLOQ | O=c1c(O)c(-c2ccc(O)cc2)oc2cc(O)cc(O)c12 [Kaempferol] |  |  | 
 |  |  | 2.0 ± 0.1 | 2.0 ± 0.1 | 2.0 ± 0.1 | 27.0 ± 1.8 | 26.2 ± 0.3 | 25.5 ± 1.2 | 260.4 ± 3.3 | 248.9 ± 6.5 | 244.4 ± 7.4 | 2.1 ± 0.1 | 27.3 ± 0.6 | 251.2 ± 9.7 | lower than the LLOQ | O=C(/C=C/c1ccc(O)c(O)c1)O[C@H]1[C@H](O)C[C@](O)(C(=O)O)C[C@H]1O [Cryptochlorogenic acid] |  |  | 
 |  |  | 2.2 ± 0.1 | 2.0 ± 0.1 | 1.9 ± 0.1 | 26.2 ± 0.7 | 27.3 ± 0.6 | 25.6 ± 0.9 | 254.9 ± 11.8 | 253.2 ± 5.0 | 260.0 ± 6.2 | 2.3 ± 0.1 | 26.6 ± 0.7 | 245.3 ± 11.6 | lower than the LLOQ | O=c1c(O)c(-c2ccc(O)c(O)c2)oc2cc(O)cc(O)c12 [Quercetin] |  |  | 

The remaining lines, values behind:

Molecule | AUC(0-inf) [1, 3] [ng·h/mL] | Cmax [1, 3] [ng/mL] | AUC [1, 3] [ng·h/mL] | Measured concentration, room temperature for 4h ([2]; spiked 2 ng/mL) [ng/mL] | Measured concentration, three freeze-thaw ([2]; spiked 2 ng/mL) [ng/mL] | Measured concentration, −70°C for 21 days ([2]; spiked 2 ng/mL) [ng/mL] | Measured concentration, room temperature for 4h ([2]; spiked 25 ng/mL) [ng/mL] | Measured concentration, three freeze-thaw ([2]; spiked 25 ng/mL) [ng/mL] | Measured concentration, −70°C for 21 days ([2]; spiked 25 ng/mL) [ng/mL] | Measured concentration, room temperature for 4h ([2]; spiked 250 ng/mL) [ng/mL] | Measured concentration, three freeze-thaw ([2]; spiked 250 ng/mL) [ng/mL] | Measured concentration, −70°C for 21 days ([2]; spiked 250 ng/mL) [ng/mL] | Measured concentration, autosampler for 12h ([2]; spiked 2 ng/mL) [ng/mL] | Measured concentration, autosampler for 12h ([2]; spiked 25 ng/mL) [ng/mL] | Measured concentration, autosampler for 12h ([2]; spiked 250 ng/mL) [ng/mL] | plasma concentration after 15 minutes of intragastric administration ([1]; rat plasma) | T max ([1]; rat plasma, n = 6) [min] | t 1/2 ([1]; rat plasma, n = 6) [min] | further results
Isoquercitrin |  |  |  | 1.8 ± 0.2 | 2.1 ± 0.1 | 1.9 ± 0.1 | 22.8 ± 1.4 | 26.2 ± 1.8 | 25.9 ± 1.8 | 247.2 ± 14.7 | 248.9 ± 5.1 | 263.6 ± 10.2 | 1.9 ± 0.1 | 24.0 ± 0.5 | 238.3 ± 7.2 |  | 12.6 ± 4.2 | 29.4 ± 3 | AUC(0-tn) ([1]; rat plasma, n = 6): 838.79 ± 518.04 ng·h/mL; AUC(0-∞) ([1]; rat plasma, n = 6): 949.49 ± 594.15 ng·h/mL; C max ([1]; rat plasma, n = 6): 52.61 ± 7.55 ng/mL; T max [1, 4]: less than 1 h; t 1/2 [1, 4]: less than 1.5 h
O=c1c(O[C@@H]2O[C@H](CO)[C@@H](O)[C@H](O)[C@H]2O)c(-c2ccc(O)cc2)oc2cc(O)cc(O)c12 [Astragalin] | 441 ± 292 | 58.2 ± 28.5 | 370 ± 259 | 2.1 ± 0.1 | 2.1 ± 0.1 | 2.0 ± 0.1 | 27.6 ± 1.2 | 27.2 ± 0.8 | 26.1 ± 1.2 | 248.1 ± 4.3 | 258.6 ± 8.5 | 251.5 ± 8.7 | 2.1 ± 0.1 | 27.3 ± 1.0 | 254.6 ± 4.6 |  | 14.4 ± 5.4 | 27 ± 15.6 | T max [1, 5]: less than 1 h; t 1/2 [1, 5]: less than 1.5 h
O=c1c(O[C@@H]2O[C@H](CO)[C@H](O)[C@H](O)[C@H]2O)c(-c2ccc(O)c(O)c2)oc2cc(O)cc(O)c12 [Hyperoside] | 754 ± 424 | 29.8 ± 12.8 | 684 ± 407 | 2.0 ± 0.1 | 2.1 ± 0.1 | 1.9 ± 0.1 | 23.0 ± 1.2 | 26.2 ± 1.5 | 26.4 ± 1.8 | 244.4 ± 14.3 | 254.7 ± 9.7 | 256.4 ± 15.8 | 1.8 ± 0.1 | 23.6 ± 0.7 | 230.2 ± 13.1 |  | 10.2 ± 4.2 | 21.6 ± 13.8 | T max [1, 6]: less than 1 h; t 1/2 [1, 6]: less than 1.5 h
O=c1cc(-c2ccc(O)cc2)oc2cc(O)cc(O)c12 [Apigenin] |  |  |  | 2.2 ± 0.1 | 2.0 ± 0.1 | 2.1 ± 0.1 | 26.4 ± 1.2 | 25.7 ± 2.0 | 26.5 ± 1.3 | 249.3 ± 12.8 | 262.2 ± 16.0 | 257.8 ± 8.2 | 2.1 ± 0.2 | 25.0 ± 1.2 | 248.5 ± 4.9 | lower than the LLOQ |  |  | 
